The values that follow come from patent US9951068B2 (Proximagen Limited, priority 2013, dated 2018).

The target in series [1] is purified recombinantly expressed human SSAO (Homo sapiens (Human), UniProt Q16853). The series can be described thus: SSAO enzyme inhibition assay (HRP-coupled hydrogen peroxide detection or 14C-benzaldehyde detection, benzylamine substrate). The series is classed as biochemical. The conditions noted are these: SSAO inhibitory activity, human recombinant SSAO, RT. In outline: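 Human recombinant SSAO pre-incubated ~15 min with compound, room temperature. Radiometric format: 10 ug/ml enzyme, 40 uM 14C-benzylamine, 1 h, in PBS. IC50 by four-parameter fit.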
Sequence of purified recombinantly expressed human SSAO (Q16853 29-763): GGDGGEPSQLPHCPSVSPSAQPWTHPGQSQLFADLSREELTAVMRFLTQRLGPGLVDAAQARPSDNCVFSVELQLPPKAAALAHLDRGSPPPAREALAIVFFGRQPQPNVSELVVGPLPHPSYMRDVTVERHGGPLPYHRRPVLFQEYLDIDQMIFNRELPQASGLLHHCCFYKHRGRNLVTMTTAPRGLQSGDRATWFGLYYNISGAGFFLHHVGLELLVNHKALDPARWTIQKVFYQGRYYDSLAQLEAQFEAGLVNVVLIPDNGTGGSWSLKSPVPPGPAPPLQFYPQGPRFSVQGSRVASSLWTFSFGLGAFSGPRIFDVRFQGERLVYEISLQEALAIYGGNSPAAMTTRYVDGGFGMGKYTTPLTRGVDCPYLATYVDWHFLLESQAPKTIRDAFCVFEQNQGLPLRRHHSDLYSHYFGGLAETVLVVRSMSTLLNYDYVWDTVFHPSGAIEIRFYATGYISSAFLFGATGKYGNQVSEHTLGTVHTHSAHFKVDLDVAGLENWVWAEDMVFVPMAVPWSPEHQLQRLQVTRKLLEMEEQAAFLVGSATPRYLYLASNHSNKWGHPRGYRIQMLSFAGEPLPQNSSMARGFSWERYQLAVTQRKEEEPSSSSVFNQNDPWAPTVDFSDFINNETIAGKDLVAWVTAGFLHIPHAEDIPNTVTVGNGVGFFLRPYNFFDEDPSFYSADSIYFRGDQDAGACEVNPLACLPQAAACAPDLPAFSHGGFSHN

Series [2] has as its target human ether a go-go related gene (hERG) K+ channel (Homo sapiens (Human), UniProt Q12809). The series can be described thus: hERG assay, IonWorks patch clamp electrophysiology. The series is classed as cell-based. The conditions noted are these: Chinese Hamster Lung cell line stably expressing hERG; max assay concentration 11 uM. The procedure: Compounds of the invention were tested for inhibition of the human ether a go-go related gene (hERG) K^+ channel using IonWorks patch clamp electrophysiology. 8 Point concentration-response curves were generated on two occasions using 3-fold serial dilutions from the maximum assay concentration (11 uM). Electrophysiological recordings were made from a Chinese Hamster Lung cell line stably expressing the full length hERG channel. Single cell ion currents were measured in the perforated patch clamp configuration (100 ug/mL amphoterocin) at room temperature using an IonWorks Quattro instrument. The internal solution contained 140 mM KCl, 1 mM MgCl2, 1 mM EGTA and 20 mM HEPES and was buffered to pH 7.3. The external solution contained 138 mM NaCl, 2.7 mM KCl, 0.9 mM CaCl2, 0.5 mM MgCl2, 8 mM Na2HPO4 and 1.5 mM KH2PO4, and was buffered to pH 7.3. […] This sequence was repeated 5 times at a frequency of 0.25 Hz. Currents were measured from the tail step at the 5th pulse, and referenced to the holding current. Compounds were incubated for 6-7 min prior to a second measurement of the hERG signal using an identical pulse train. […] A control compound (quinidine) was used (see Table 20 below).

Where only a bound is given, the exact number is not on record here.

Sequence of human ether a go-go related gene (hERG) K+ channel (Q12809 whole entry): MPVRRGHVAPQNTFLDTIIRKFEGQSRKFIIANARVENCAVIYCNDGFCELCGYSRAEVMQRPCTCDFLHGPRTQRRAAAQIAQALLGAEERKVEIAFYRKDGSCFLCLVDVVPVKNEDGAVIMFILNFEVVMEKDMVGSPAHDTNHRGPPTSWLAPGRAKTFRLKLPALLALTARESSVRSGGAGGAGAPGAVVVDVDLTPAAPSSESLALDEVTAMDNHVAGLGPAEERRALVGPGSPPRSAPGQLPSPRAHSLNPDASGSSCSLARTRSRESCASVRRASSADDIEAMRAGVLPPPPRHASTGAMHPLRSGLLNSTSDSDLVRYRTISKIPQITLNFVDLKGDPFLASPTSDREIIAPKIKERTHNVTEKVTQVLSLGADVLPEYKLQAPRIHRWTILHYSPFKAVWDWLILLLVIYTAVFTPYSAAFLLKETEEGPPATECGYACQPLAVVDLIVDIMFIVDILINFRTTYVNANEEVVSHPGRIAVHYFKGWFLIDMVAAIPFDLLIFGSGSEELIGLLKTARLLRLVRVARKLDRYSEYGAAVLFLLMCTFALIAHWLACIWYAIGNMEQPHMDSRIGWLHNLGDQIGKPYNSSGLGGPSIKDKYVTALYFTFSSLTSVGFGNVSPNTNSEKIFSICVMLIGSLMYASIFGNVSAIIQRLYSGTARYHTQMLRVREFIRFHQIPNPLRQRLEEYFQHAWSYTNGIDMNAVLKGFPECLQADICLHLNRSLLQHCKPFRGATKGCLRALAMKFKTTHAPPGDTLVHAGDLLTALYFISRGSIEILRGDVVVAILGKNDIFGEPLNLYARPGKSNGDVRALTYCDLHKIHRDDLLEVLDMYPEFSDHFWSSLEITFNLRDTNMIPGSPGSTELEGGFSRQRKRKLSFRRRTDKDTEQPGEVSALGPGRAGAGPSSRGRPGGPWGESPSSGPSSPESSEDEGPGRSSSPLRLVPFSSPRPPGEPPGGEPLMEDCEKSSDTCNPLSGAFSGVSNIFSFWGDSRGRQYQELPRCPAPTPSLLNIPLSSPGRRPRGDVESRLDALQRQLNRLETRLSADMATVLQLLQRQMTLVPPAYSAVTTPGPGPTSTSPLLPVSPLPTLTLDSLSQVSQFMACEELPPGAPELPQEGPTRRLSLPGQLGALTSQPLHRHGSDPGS

A word on the IC50: it is the concentration that inhibits the measured activity by half. Consider `O=C1CN(c2ncc(-c3nc4ccncc4n3-c3ccc(Cl)cc3)cn2)CCN1` [Example 13, 4-{5-[3-(4-Chlorophenyl)-3H-imidazo[4,5-c]pyridin-2-yl]pyrimidin-2-yl}piperazin-2-one], for which the IC50 was less than 0.05 µM in series [1] and greater than 10 µM in series [2].
The corresponding values for `CC(=O)N1CCN(c2ccc(-c3nc4ccncc4n3-c3ccc(F)cc3)cn2)CC1` [Example 86, 1-(4-{5-[3-(4-Fluorophenyl)-3H-imidazo[4,5-c]pyridin-2-yl]pyridin-2-yl}piperazin-1-yl)ethan-1-one] are less than 0.05 µM and greater than 10 µM.
As to `Fc1ccc(-n2c(-c3cnc(N4CCCC4)nc3)nc3ccncc32)cc1` [Example 69, 5-[3-(4-Fluorophenyl)-3H-imidazo[4,5-c]pyridin-2-yl]-2-(pyrrolidin-1-yl)pyrimidine], the IC50 in series [1] is less than 0.05 µM; in series [2], greater than 10 µM.
Turning to `NC(=O)N1CCN(c2ccc(-c3nc4ccncc4n3-c3ccc(F)cc3)cn2)CC1` [Example 92, 4-{5-[3-(4-Fluorophenyl)-3H-imidazo[4,5-c]pyridin-2-yl]pyridin-2-yl}piperazine-1-carboxamide], the IC50 in series [1] was less than 0.05 µM; in series [2] it was greater than 10 µM.
The corresponding values for `Cc1ccc(-n2c(-c3ccc(N4CCOCC4)nc3)nc3ccncc32)nc1` [Example 82, 4-{5-[3-(5-Methylpyridin-2-yl)-3H-imidazo[4,5-c]pyridin-2-yl]pyridin-2-yl}morpholine] are less than 0.05 µM and greater than 10 µM.
`CS(=O)(=O)N1CCN(c2ccc(-c3nc4ccncc4n3-c3ccc(F)cc3)cn2)CC1` [Example 89, 1-{5-[3-(4-Fluorophenyl)-3H-imidazo[4,5-c]pyridin-2-yl]pyridin-2-yl}-4-methanesulfonylpiperazine]: the figures for the concentration for half-maximal inhibition (IC50) in series [1] and in series [2] were less than 0.05 µM and greater than 10 µM, respectively.
The corresponding values for `O=C1CN(c2ncc(-c3cc4ccncc4n3-c3ccc(Cl)cc3)cn2)CCN1` [Example 128, 4-{5-[1-(4-Chlorophenyl)-1H-pyrrolo[2,3-c]pyridin-2-yl]pyrimidin-2-yl}piperazin-2-one] are less than 0.05 µM and greater than 10 µM.
The corresponding values for `CC1CN(c2ccc(-c3nc4ccncc4n3-c3ccc(F)cc3)cn2)CCO1` (stereo not shown) [Example 70, 4-{5-[3-(4-Fluorophenyl)-3H-imidazo[4,5-c]pyridin-2-yl]pyridin-2-yl}-2-methylmorpholine] are less than 0.05 µM and greater than 10 µM.
The like results for `Clc1ccc(-n2c(-c3ccc(N4CCNCC4)nc3)nc3ccncc32)cc1` [Example 50, 1-{5-[3-(4-Chlorophenyl)-3H-imidazo[4,5-c]pyridin-2-yl]pyridin-2-yl}piperazine] were, in that order, less than 0.05 µM and greater than 10 µM.
With `Fc1ccc(-n2c(-c3cnc(N4CCOCC4)nc3)nc3ccncc32)c(F)c1` [Example 78, 4-{5-[3-(2,4-Difluorophenyl)-3H-imidazo[4,5-c]pyridin-2-yl]pyrimidin-2-yl}morpholine], the 50% inhibitory concentration (IC50) in series [1] is less than 0.05 µM; in series [2], greater than 10 µM.
The like results for `Clc1ccc(-n2c(-c3cnc(N4CCOCC4)nc3)nc3ccncc32)nc1` [Example 75, 4-{5-[3-(5-Chloropyridin-2-yl)-3H-imidazo[4,5-c]pyridin-2-yl]pyrimidin-2-yl}morpholine; tris(trifluoroacetic acid)] were, in that order, less than 0.05 µM and greater than 10 µM.
